In US11608323B2 (SYNGENTA LIMITED, priority 2013, dated 2023):

Tests used:
Format in all cases: in vivo
[1] = system: ABUTH; assay: Post-emergence herbicidal activity, glasshouse pot test; details: Abutilon theophrasti; application post-emergence; rate 1000 g/Ha; evaluated after 13 days
In short: (§1)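 Foliar application to 8-day-old plants using a 0.5% Tween 20 acetone/water carrier; phytotoxicity is scored visually from 0 to 5 after 13 days of growth at 24/16 °C day/night.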

[2] = system: AMARE; assay: as above; details: Amaranthus retroflexus; application post-emergence; rate 1000 g/Ha; evaluated after 13 days
In short: as §1

[3] = system: ZEAMX; assay: as above; details: Zea mays; application post-emergence; rate 1000 g/Ha; evaluated after 13 days
In short: as §1

[4] = system: SETFA; assay: as above; details: Setaria faberi; application post-emergence; rate 1000 g/Ha; evaluated after 13 days
In short: as §1

[5] = system: ECHCG; assay: as above; details: Echinochloa crus-galli; application post-emergence; rate 1000 g/Ha; evaluated after 13 days
In short: as §1

[6] = system: ALOMY; assay: as above; details: Alopecurus myosuroides; application post-emergence; rate 1000 g/Ha; evaluated after 13 days
In short: as §1

[7] = system: ABUTH; assay: Pre-emergence herbicidal activity, glasshouse pot test; details: rate 1000 g/Ha, evaluated after 13 days, scale 0-5
In short: (§2)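 Damage was rated 13 days after treatment on a 0–5 scale (0 = no damage, 5 = total damage). Pots of seeds in standard soil were sprayed one day after sowing with an aqueous solution from an acetone/water (50:50), 0.5% Tween 20 formulation and kept at 24/16 °C day/night.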

[8] = system: AMARE; assay: as above; details: rate 1000 g/Ha, evaluated after 13 days, scale 0-5
In short: as §2

[9] = system: ZEAMX; assay: as above; details: rate 1000 g/Ha, evaluated after 13 days, scale 0-5
In short: as §2

[10] = system: SETFA; assay: as above; details: rate 1000 g/Ha, evaluated after 13 days, scale 0-5
In short: as §2

[11] = system: ECHCG; assay: as above; details: rate 1000 g/Ha, evaluated after 13 days, scale 0-5
In short: as §2

[12] = system: ALOMY; assay: as above; details: rate 1000 g/Ha, evaluated after 13 days, scale 0-5
In short: as §2

Row | SMILES | Post-emergence herbicidal activity ABUTH (damage score 0-5) [1] | Post-emergence herbicidal activity AMARE (damage score 0-5) [2] | Post-emergence herbicidal activity ZEAMX (damage score 0-5) [3] | Post-emergence herbicidal activity SETFA (damage score 0-5) [4] | Post-emergence herbicidal activity ECHCG (damage score 0-5) [5] | Post-emergence herbicidal activity ALOMY (damage score 0-5) [6] | ABUTH damage score, application pre-emergence [7] | AMARE damage score, application pre-emergence [8] | ZEAMX damage score, application pre-emergence [9] | SETFA damage score, application pre-emergence [10] | ECHCG damage score, application pre-emergence [11] | ALOMY damage score, application pre-emergence [12]
1 | CC1C(O)N(c2cc(C(F)(F)F)c(-c3cncnc3)cn2)C(=O)N1C (stereo not drawn) [Compound A11] | 5 | 5 | 4 | 5 | 5 | 4 | 5 | 5 | 3 | 5 | 4 | 4
2 | COc1cnc(N2C(=O)N(C)C(C)C2O)cc1C(F)(F)F (stereo not drawn) [Compound A12, 5-hydroxy-1-[5-methoxy-4-(trifluoromethyl)-2-pyridyl]-3,4-dimethyl-imidazolidin-2-one] | 5 | 5 | 5 | 5 | 5 | 5 | 5 | 5 | 3 | 5 | 5 | 4
3 | CCOC1C(O)N(c2cc(C(F)(F)F)c(-c3ccccc3)cn2)C(=O)N1C (stereo not drawn) [Compound A13] | 5 | 5 | 0 | 5 | 5 | 4 | 5 | 5 | 1 | 3 | 3 | 3
4 | CC1C(O)N(c2cc(C(F)(F)F)ccn2)C(=O)N1C (stereo not drawn) [Compound A19, 4-hydroxy-1,5-dimethyl-3-[4-(trifluoromethyl)-2-pyridyl]imidazolidin-2-one] | 5 | 5 | 4 | 5 | 5 | 5 | 5 | 5 | 3 | 5 | 5 | 4
5 | COc1cncc(-c2cnc(N3C(=O)N(C)C(C)C3O)cc2C(F)(F)F)c1 (stereo not drawn) [Compound A20] | 5 | 5 | 4 | 5 | 5 | 5 | 5 | 5 | 5 | 5 | 4 | 4
6 | COc1ccc(-c2cnc(N3C(=O)N(C)C(C)C3O)cc2C(F)(F)F)cn1 (stereo not drawn) [Compound A21] | 5 | 5 | 3 | 5 | 5 | 5 | 5 | 5 | 2 | 5 | 5 | 3
7 | COc1ncc(-c2cnc(N3C(=O)N(C)C(C)C3O)cc2C(F)(F)F)cn1 (stereo not drawn) [Compound A22] | 5 | 5 | 5 | 5 | 5 | 5 | 5 | 5 | 3 | 5 | 5 | 4
8 | COc1ccncc1-c1cnc(N2C(=O)N(C)C(C)C2O)cc1C(F)(F)F (stereo not drawn) [Compound A23] | 5 | 5 | 2 | 4 | 2 | 4 | 2 | 5 | 1 | 3 | 2 | 3
9 | Cc1ccc(-c2cnc(N3C(=O)N(C)C(C)C3O)cc2C(F)(F)F)cn1 (stereo not drawn) [Compound A24] | 5 | 5 | 4 | 5 | 5 | 5 | 5 | 5 | 3 | 4 | 5 | 4
10 | CC1C(O)N(c2cc(C(F)(F)F)c(I)cn2)C(=O)N1C (stereo not drawn) [Compound A25, 5-hydroxy-1-[5-iodo-4-(trifluoromethyl)-2-pyridyl]-3,4-dimethyl-imidazolidin-2-one] | 5 | 5 | 5 | 5 | 5 | 5 | 5 | 5 | 2 | 4 | 5 | 4
11 | CCOC1C(O)N(c2cc(C(F)(F)F)ccn2)C(=O)N1CC (stereo not drawn) [Compound A29] | 5 | 5 | 2 | 3 | 4 | 4 | 5 | 5 | 1 | 2 | 1 | 1
12 | C=CCC1C(O)N(c2cc(C(F)(F)F)ccn2)C(=O)N1C (stereo not drawn) [Compound A32, 5-allyl-4-hydroxy-1-methyl-3-[4-(trifluoromethyl)-2-pyridyl]imidazolidin-2-one] | 5 | 5 | 2 | 5 | 5 | 5 | 5 | 5 | 2 | 4 | 5 | 4
13 | CN1C(=O)N(c2cc(C(F)(F)F)ccn2)C(O)C1C(F)(F)F (stereo not drawn) [Compound A33, 4-hydroxy-1-methyl-5-(trifluoromethyl)-3-[4-(trifluoromethyl)-2-pyridyl]imidazolidin-2-one] | 5 | 3 | 1 | 2 | 1 | 4 | 4 | 5 | 0 | 3 | 2 | 3
